The source of these data is patent US6130239A, “4-Alkenyl- and 4-alkynyloxindoles” (Hoffmann-La Roche Inc., priority 1999, dated 2000).

The assay deals with T1, Cyclin E/CDK2 (Homo sapiens, UniProt P24941).
T1 construct: made in house; host or cells: insect cells
The assay can be described thus: CDK2 FlashPlate Assay (inhibition of Rb phosphorylation by Cyclin E/CDK2). Format: biochemical. The settings on record: Table IA; recombinant human Cyclin E/CDK2, Rb substrate, 25 minutes room temperature.

As for `COc1cc[nH]c1/C=C1\C(=O)Nc2cccc(C#CCCCO)c21` [Compound B, (Z)-1,3-Dihydro-4-(5-hydroxy-1-pentynyl)-3-[(3-methoxy-1H-pyrrol-2-yl)methylene]-2H-indol-2-one], the IC50 (as a rule, the midpoint of a concentration-inhibition curve) was below 4 µM.

As to `Cc1nc[nH]c1/C=C1\C(=O)Nc2ccc(F)c(C#CCNC(N)=O)c21` [ZZ, (Z)-[3-[5-fluoro-2,3-dihydro-3-[(4-methyl-1H-imidazol-5-yl)methylene]-2-oxo-1H-indol-4-yl]-2-propynyl]urea], the IC50 was below 4 µM.

Turning to `COC(=O)CCC#Cc1c(N)ccc2c1/C(=C/c1[nH]ccc1OC)C(=O)N2` [FF, (Z)-5-[5-Amino-2,3-dihydro-3-[(3-methoxy-1H-pyrrol-2-yl)methylene]-2-oxo-1H-indol-4-yl]-4-pentynoic acid methyl ester], the IC50 was below 4 µM.

`COc1cc[nH]c1/C=C1\C(=O)Nc2cccc(C#CC3(O)CCCCC3)c21` [M, (Z)-1,3-Dihydro-4-[(1-hydroxycyclohexyl)ethynyl]-3-[(3-methoxy-1H-pyrrol-2-yl)methylene]-2H-indol-2-one]: the IC50 is below 4 µM.

Consider `COc1cc[nH]c1/C=C1\C(=O)Nc2cccc(C#CCNCc3ccccc3)c21` [KK, (Z)-1,3-Dihydro-3-[(3-methoxy-1H-pyrrol-2-yl)methylene]-4-[3-(N-phenylmethylamino)-1-propynyl]-2H-indol-2-one], for which the IC50 was below 4 µM.

On to `COc1cc[nH]c1/C=C1\C(=O)Nc2cccc(C#CCCC(N)=O)c21` [J, (Z)-5-[2,3-Dihydro-3-[(3-methoxy-1H-pyrrol-2-yl)methylene]-2-oxo-1H-indol-4-yl]-4-pentynamide], for which the IC50 is below 4 µM.

`COc1cc[nH]c1/C=C1\C(=O)Nc2cccc(C#CC(C)(O)CC(C)C)c21` (racemic) [O, rac-(Z)-1,3-Dihydro-4-(3,5-dimethyl-3-hydroxy-1-hexynyl)-3-[(3-methoxy-1H-pyrrol-2-yl)methylene]-2H-indol-2-one]: the IC50 is below 4 µM.

For the molecule `CCC(C)(O)C#Cc1cccc2c1/C(=C/c1[nH]ccc1OC)C(=O)N2` (racemic) [D, rac-(Z)-1,3-Dihydro-4-(3-hydroxy-3-methyl-1-pentynyl)-3-[(3-methoxy-1H-pyrrol-2-yl)methylene]-2H-indol-2-one], the IC50 is below 4 µM.

As to `COc1cc[nH]c1/C=C1\C(=O)Nc2cccc(C#CCCO)c21` [C, (Z)-1,3-Dihydro-4-(4-hydroxy-1-butynyl)-3-[(3-methoxy-1H-pyrrol-2-yl)methylene]-2H-indol-2-one], the IC50 was below 4 µM.

Take `C#CCOCCO` [Example 21, 3-(2-Hydroxyethoxy)-1-propyne]: the IC50 was below 4 µM.

Consider `COCC#Cc1cccc2c1/C(=C/c1[nH]ccc1OC)C(=O)N2` [X, (Z)-1,3-Dihydro-4-(3-methoxy-1-propynyl)-3-[(3-methoxy-1H-pyrrol-2-yl)methylene]-2H-indol-2-one], for which the IC50 is below 4 µM.

As to `CCCCCC(O)C#Cc1cccc2c1/C(=C/c1[nH]ccc1OC)C(=O)N2` (racemic) [Q, rac-(Z)-1,3-Dihydro-4-(3-hydroxy-1-octynyl)-3-[(3-methoxy-1H-pyrrol-2-yl)methylene]-2H-indol-2-one], the IC50 was below 4 µM.

Regarding `COc1cc[nH]c1/C=C1\C(=O)Nc2cccc(C#CCC(C(=O)O)C(=O)O)c21` [W, (Z)-[3-[2,3-Dihydro-3-[(3-methoxy-1H-pyrrol-2-yl)methylene]-2-oxo-1H-indol-4-yl]-2-propynyl]propanedioic acid], the IC50 was below 4 µM.

Take `COc1cc[nH]c1/C=C1\C(=O)Nc2cccc(C#CCCC(=O)O)c21` [H, (Z)-5-[2,3-Dihydro-3-[(3-methoxy-1H-pyrrol-2-yl)methylene]-2-oxo-1H-indol-4-yl]-4-pentynoic acid]: the IC50 is below 4 µM.

In the case of `COc1cc[nH]c1/C=C1\C(=O)Nc2cccc(C#CCCCC(N)=O)c21` [K, (Z)-6-[2,3-Dihydro-3-[(3-methoxy-1H-pyrrol-2-yl)methylene]-2-oxo-1H-indol-4-yl]-5-hexynamide], the IC50 is below 4 µM.
